We go through two molecules from paper PMC9146934 (Membranes, 2022).

“And” between values parts separate entries of the source, which are not always exact repeats. Identical values can stand only once. Like-named read-outs stand apart in the source and are kept apart here.

One assay has as its system A. pisum RDL1bd. The note with it: text prints the receptor as Ap-RDL1; read-out: IC50 for fipronil; cited from earlier work.
In another assay the test system is Hs-α1β2γ2. The note with it: read-out: IC50 for fipronil; cited from earlier work.
A further assay deals with T1, Vd-RDL1 GABAr (Varroa destructor, UniProt A0A343W7T5).
T1 sequence (A0A343W7T5 35-585): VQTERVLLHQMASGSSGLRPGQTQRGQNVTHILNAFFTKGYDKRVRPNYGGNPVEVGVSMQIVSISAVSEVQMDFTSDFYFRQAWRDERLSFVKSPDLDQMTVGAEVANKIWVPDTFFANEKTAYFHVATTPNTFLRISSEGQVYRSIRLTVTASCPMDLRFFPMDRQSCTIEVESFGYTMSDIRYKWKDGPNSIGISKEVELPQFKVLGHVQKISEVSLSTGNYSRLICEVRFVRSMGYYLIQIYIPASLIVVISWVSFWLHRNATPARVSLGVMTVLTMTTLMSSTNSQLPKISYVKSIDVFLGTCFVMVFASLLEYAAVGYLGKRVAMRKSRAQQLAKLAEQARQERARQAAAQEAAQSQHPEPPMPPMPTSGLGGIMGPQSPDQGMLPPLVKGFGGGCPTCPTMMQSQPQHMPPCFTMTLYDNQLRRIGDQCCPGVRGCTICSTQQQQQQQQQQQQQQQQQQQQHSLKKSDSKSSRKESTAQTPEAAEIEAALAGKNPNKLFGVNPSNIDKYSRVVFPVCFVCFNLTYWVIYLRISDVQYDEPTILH
Put plainly: Two-electrode voltage-clamp of GABA-induced currents, Vd-RDL1 expressed in Xenopus laevis oocytes. The assay is classed as cell-based. The procedure: (§1) cRNAs were in vitro synthesized from linearized plasmids using the M-message M-machine transcription kit (Thermo Fisher, Waltham, MA USA) following the manufacturer’s instructions. The cRNA concentration was adjusted to 1 µg/µL. Preparation and injection of X. laevis oocytes were completed as previously described. The oocytes were injected with 30 nL of a solution containing the cRNA of interest. Injected oocytes were maintained at 19 °C in a survival solution containing (in mM): NaCl, 96; KCl, 2; CaCl2, 1.8; MgCl2, 1; Hepes, 5; Na-pyruvate, 2.5; and gentamycin, 0.025, pH = 7.2 with NaOH, renewed daily.
(§2) Expressed currents were recorded at room temperature using the two-electrode voltage-clamp method 1–3 days after injection. Electrodes were pulled from borosilicate glass (Warner, ref GC150T10) and filled with 3 M KCl. […] Drugs were applied using a gravity-driven perfusion system at a speed of 2 mL/min.
(§3) Oocytes were perfused with the following ND solution (in mM): NaCl, 96; KCl, 3; CaCl2, 0.5; MgCl2, 1; HEPES, 5, with pH set at 7.4 with NaOH at ~1 mL/min. The reversal potential of the Ap-RDL receptor was measured in solutions containing (in mM): NaCl, Na-acetate or TEACl (tetraethylammonium chloride), 100; HEPES, 5 with pH set at 7.4, with NaOH or TEAOH. […] Fipronil or picrotoxin were dissolved at the final concentrations from stock solutions in DMSO (dimethylsulfoxide) at 200 and 10 mM, respectively. The final DMSO concentration was always less than 0.2%.
(§4) With Rel.Cur. the current amplitude at each concentration relative to the current recorded in the absence of antagonist; IC50, the concentration for half-maximum inhibition, log ([Inhib]) the logarithm of the inhibitor concentration, and p a slope factor.
(§5) With t, the time of the recording; Rel.Cur., the current amplitude at each concentration relative to the current recorded in the absence of antagonist; Amp, the amplitude of the exponential, Tau Block, the time constant of the exponential, and R the residual non-inhibited current at the steady-state of the effects. The relative block (Rel.B) is estimated as 1-R expressed in %.

The next assay addresses T2, Vd-RDL3 GABAr (Varroa destructor, UniProt A0A343W7T7).
T2 sequence (A0A343W7T7 31-591): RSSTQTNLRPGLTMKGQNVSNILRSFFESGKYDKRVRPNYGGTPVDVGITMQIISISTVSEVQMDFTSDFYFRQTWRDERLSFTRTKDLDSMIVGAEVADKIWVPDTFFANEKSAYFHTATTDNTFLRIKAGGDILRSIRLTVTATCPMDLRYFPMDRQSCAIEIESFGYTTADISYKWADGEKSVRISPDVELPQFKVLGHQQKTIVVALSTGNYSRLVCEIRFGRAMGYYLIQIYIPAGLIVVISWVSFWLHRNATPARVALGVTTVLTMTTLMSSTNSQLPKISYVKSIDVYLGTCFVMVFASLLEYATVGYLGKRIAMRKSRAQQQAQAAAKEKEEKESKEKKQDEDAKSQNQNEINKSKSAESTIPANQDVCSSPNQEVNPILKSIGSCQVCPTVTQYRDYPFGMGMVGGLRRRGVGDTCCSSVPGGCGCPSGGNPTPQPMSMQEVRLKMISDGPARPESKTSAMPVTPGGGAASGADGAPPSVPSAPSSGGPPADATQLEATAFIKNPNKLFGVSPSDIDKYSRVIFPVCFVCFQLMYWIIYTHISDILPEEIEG
Put plainly: Two-electrode voltage-clamp of GABA-induced currents, Vd-RDL3 expressed in Xenopus laevis oocytes. In kind it is cell-based. The procedure:
as §1, §2, §3, §4, §5

Assay [1] concerns the target T3, Hs-α2β2γ2 GABA-A receptor (Homo sapiens, UniProt P18507+P47869+P47870).
T3 construct: expressed in transfected cells; host or cells: Xenopus laevis oocytes (cRNA injection)
Put plainly: cell-based. In kind it is cell-based. The note with it: IC50 (inhibition of the GABA response), GABA 100 µM, inhibitor co-applied. The procedure:
as §1, §2, §3, §4, §5

For another assay, the system named is A. pisum RDL2b. The note with it: text prints the receptor as Ap-RDL2; read-out: IC50 for fipronil; cited from earlier work.
Another assay concerns the target T4, Am-RDL GABAr (Apis mellifera, UniProt A0A8U0Y4W2).
T4 sequence (A0A8U0Y4W2 19-476): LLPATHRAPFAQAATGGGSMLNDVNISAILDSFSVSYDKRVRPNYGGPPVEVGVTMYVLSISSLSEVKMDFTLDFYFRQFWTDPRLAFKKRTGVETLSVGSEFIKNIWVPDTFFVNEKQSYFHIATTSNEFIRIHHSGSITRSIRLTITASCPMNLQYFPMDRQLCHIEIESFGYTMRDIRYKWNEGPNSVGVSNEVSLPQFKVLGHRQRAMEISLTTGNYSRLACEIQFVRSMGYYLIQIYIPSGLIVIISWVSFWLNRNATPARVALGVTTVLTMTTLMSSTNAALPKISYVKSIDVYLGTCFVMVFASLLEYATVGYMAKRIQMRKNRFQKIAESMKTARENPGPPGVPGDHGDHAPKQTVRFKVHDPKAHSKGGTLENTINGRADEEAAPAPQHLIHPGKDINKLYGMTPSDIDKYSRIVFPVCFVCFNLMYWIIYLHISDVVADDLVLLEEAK
Put plainly: Two-electrode voltage-clamp of GABA-induced currents, Am-RDL expressed in Xenopus laevis oocytes. In kind it is cell-based. The method, then: as §1, §2, §3, §4, §5
On the technique in general: Two-electrode voltage clamp is typically applied to oocytes expressing channels or transporters.

The target in a further assay is T5, Ap-RDL1 GABAr (Acyrthosiphon pisum, UniProt A0A385J708, C18R).
T5 sequence (A0A385J708 33-567 C18R): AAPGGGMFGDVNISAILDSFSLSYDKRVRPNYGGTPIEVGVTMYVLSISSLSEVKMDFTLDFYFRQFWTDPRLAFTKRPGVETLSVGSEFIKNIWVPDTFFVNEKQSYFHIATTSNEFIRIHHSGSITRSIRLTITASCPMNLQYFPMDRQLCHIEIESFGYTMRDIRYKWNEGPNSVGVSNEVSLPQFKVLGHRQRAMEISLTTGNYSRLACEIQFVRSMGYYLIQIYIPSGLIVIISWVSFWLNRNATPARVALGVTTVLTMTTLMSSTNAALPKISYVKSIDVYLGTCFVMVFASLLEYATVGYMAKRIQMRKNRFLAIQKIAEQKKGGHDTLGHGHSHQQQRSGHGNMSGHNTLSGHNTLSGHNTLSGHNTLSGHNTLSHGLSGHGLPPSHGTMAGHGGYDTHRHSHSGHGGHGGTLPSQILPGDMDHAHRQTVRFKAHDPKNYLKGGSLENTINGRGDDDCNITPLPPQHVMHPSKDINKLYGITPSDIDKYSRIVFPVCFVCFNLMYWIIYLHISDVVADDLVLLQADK
Put plainly: Two-electrode voltage-clamp of GABA-induced currents, Ap-RDL1 expressed in Xenopus laevis oocytes. The note with it: IC50 (inhibition of the GABA response), GABA 100 µM, inhibitor co-applied. The assay is classed as cell-based. The procedure: as §1, §2, §3, §4, §5

Another assay has as its target T6, Vd-RDL2 GABAr (Varroa destructor, UniProt A0A3G3MDS2).
T6 sequence (A0A3G3MDS2 20-661): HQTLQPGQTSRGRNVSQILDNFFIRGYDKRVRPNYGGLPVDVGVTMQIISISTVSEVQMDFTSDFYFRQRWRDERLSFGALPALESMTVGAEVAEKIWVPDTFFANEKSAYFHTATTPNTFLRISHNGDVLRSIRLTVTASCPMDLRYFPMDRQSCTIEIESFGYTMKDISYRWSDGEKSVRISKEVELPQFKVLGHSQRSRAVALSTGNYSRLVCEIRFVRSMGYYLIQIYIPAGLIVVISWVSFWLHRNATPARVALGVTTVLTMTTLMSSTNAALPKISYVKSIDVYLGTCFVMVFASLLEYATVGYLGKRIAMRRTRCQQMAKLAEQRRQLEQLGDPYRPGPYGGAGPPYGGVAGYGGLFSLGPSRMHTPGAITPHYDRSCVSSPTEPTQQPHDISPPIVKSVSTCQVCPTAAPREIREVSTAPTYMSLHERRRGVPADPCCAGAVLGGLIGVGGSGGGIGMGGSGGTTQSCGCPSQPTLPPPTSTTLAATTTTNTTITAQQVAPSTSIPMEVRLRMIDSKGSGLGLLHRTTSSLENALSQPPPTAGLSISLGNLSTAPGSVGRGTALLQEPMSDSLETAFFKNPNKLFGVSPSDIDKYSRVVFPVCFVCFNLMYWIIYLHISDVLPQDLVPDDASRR
Put plainly: Two-electrode voltage-clamp of GABA-induced currents, Vd-RDL2 expressed in Xenopus laevis oocytes. In kind it is cell-based. The note with it: IC50 (inhibition of the GABA response), GABA 100 µM, inhibitor co-applied. The procedure:
as §1, §2, §3, §4, §5

The next assay concerns A. pisum RDL1ad. Conditions: read-out: IC50 for fipronil; cited from earlier work.

Usually IC50 stands for the midpoint of a concentration-inhibition curve.

T3 sequence (P47869 29-451): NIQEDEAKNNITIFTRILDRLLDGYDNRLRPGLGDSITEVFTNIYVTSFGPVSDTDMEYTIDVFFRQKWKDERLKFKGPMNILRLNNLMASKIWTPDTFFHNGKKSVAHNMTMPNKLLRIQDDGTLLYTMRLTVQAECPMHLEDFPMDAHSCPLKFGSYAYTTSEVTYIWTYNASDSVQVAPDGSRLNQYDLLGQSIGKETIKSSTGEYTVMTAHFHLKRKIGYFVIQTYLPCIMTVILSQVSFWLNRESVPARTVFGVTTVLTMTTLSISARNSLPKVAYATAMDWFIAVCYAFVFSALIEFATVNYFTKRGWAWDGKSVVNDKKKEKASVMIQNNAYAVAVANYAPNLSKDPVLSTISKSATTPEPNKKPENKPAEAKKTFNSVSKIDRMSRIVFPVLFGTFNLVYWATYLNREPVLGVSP
T3 sequence (P47870 25-512 limits assumed): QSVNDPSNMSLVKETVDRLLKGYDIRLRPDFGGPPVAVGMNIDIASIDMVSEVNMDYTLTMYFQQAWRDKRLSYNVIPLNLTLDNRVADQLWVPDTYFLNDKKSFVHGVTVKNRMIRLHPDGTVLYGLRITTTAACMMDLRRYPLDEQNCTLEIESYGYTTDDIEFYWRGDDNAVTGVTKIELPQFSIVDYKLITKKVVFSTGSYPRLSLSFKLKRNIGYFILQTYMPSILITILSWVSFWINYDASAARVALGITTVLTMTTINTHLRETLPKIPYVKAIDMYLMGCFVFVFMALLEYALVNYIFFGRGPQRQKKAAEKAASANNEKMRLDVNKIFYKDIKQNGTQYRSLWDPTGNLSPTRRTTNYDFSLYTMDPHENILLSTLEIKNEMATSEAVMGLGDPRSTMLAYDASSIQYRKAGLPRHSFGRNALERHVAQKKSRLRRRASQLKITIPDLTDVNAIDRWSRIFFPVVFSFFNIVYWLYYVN
T3 sequence (P18507 40-475): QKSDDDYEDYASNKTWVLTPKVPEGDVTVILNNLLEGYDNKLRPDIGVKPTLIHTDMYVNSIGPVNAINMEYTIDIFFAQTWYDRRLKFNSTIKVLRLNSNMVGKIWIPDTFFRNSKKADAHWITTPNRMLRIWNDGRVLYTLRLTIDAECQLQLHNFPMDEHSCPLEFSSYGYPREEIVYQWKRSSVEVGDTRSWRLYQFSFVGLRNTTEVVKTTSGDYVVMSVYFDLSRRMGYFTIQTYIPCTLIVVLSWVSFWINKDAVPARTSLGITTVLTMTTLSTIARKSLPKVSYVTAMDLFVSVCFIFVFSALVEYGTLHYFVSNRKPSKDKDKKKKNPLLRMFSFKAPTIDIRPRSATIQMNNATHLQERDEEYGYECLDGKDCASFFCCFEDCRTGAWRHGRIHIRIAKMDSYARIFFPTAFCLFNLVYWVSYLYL

Take `N#Cc1nn(-c2c(Cl)cc(C(F)(F)F)cc2Cl)c(N)c1[S+]([O-])C(F)(F)F` (centres unmarked) [fipronil]: the IC50 in the assay with A. pisum RDL1bd was 180 ± 100 nM; in the assay on Hs-α1β2γ2, 1100 ± 200 nM; on Vd-RDL1 GABAr, > 500000 nM; against Vd-RDL3 GABAr, 3640 ± 1740 nM; in assay [1], 1880 nM and 300 to 3000 nM and 1800 nM; with A. pisum RDL2b it was 720 ± 200 nM. Moreover, the IC50 is 70 ± 200 nM at Am-RDL GABAr; 310 nM and 300 to 3000 nM on Ap-RDL1 GABAr; 770 nM and 300 to 3000 nM at Vd-RDL2 GABAr; 640 ± 150 nM in the assay on A. pisum RDL1ad. Further, on Vd-RDL1 GABAr (fipronil 30 µM, GABA 100 µM), the “block of GABA response by fipronil” value is “almost no block”.
As for picrotoxin, the sensitivity to picrotoxin entry at Vd-RDL1 GABAr (GABA 100 µM) is reported as “insensitive”. Further, the “block of GABA response by picrotoxin” value on Vd-RDL1 GABAr (picrotoxin 100 µM, GABA 100 µM) came out at 20%. In addition, on Vd-RDL1 GABAr (read-out: IC50 (inhibition of the GABA response), GABA 100 µM, inhibitor co-applied), the IC50 was > 500000 nM.
